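Compound exposure: 48 hours, 5 concentrations, 96-well plates. GI50 = concentration required for 50% inhibition of growth. Definition used: TGI = concentration required for complete inhibition of growth.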
Columns and labels:
Assay in all cases: growth of human tumour cells (NCI), 48 h
HCT-116 colon = tested on: HCT-116 colon
SK-MEL-2 melanoma = tested on: SK-MEL-2 melanoma
BT-549 breast = tested on: BT-549 breast
HOP-92 NSCLC = tested on: HOP-92 NSCLC
EKVX NSCLC = tested on: EKVX NSCLC
COLO 205 colon = tested on: COLO 205 colon
OVCAR-5 ovarian = tested on: OVCAR-5 ovarian
DU-145 prostate = tested on: DU-145 prostate
OVCAR-8 ovarian = tested on: OVCAR-8 ovarian
LOX IMVI melanoma = tested on: LOX IMVI melanoma
IGROV1 ovarian = tested on: IGROV1 ovarian
ACHN renal = tested on: ACHN renal
A498 renal = tested on: A498 renal
HT29 colon = tested on: HT29 colon
SF-295 CNS = tested on: SF-295 CNS
OVCAR-4 ovarian = tested on: OVCAR-4 ovarian
SK-MEL-28 melanoma = tested on: SK-MEL-28 melanoma
TK-10 renal = tested on: TK-10 renal
KM12 colon = tested on: KM12 colon
SF-539 CNS = tested on: SF-539 CNS
NCI-H522 lung = tested on: NCI-H522 lung
M14 melanoma = tested on: M14 melanoma
K-562 leukemia = tested on: K-562 leukemia
HOP-62 NSCLC = tested on: HOP-62 NSCLC
RXF 393 renal = tested on: RXF 393 renal
UACC-257 melanoma = tested on: UACC-257 melanoma
HCT-15 colon = tested on: HCT-15 colon
NCI-H226 lung = tested on: NCI-H226 lung
SW-620 colon = tested on: SW-620 colon
SNB-75 CNS = tested on: SNB-75 CNS
SK-MEL-5 melanoma = tested on: SK-MEL-5 melanoma
HS 578T breast = tested on: HS 578T breast
PC-3 prostate = tested on: PC-3 prostate
MDA-MB-231 breast = tested on: MDA-MB-231 breast
RPMI-8226 leukemia = tested on: RPMI-8226 leukemia
UO-31 renal = tested on: UO-31 renal
SK-OV-3 ovarian = tested on: SK-OV-3 ovarian
U251 CNS = tested on: U251 CNS
T-47D breast = tested on: T-47D breast
MCF7 breast = tested on: MCF7 breast
SNB-19 CNS = tested on: SNB-19 CNS
786-0 renal = tested on: 786-0 renal
MDA-MB-435 = tested on: MDA-MB-435
NCI-H460 lung = tested on: NCI-H460 lung
MOLT-4 leukemia = tested on: MOLT-4 leukemia
HCC-2998 colon = tested on: HCC-2998 colon
NCI-H23 lung = tested on: NCI-H23 lung
SN12C renal = tested on: SN12C renal
SF-268 CNS = tested on: SF-268 CNS
SR leukemia = tested on: SR leukemia
MALME-3M melanoma = tested on: MALME-3M melanoma
A549 NSCLC = tested on: A549 NSCLC
CAKI-1 renal = tested on: CAKI-1 renal
HL-60(TB) leukemia = tested on: HL-60(TB) leukemia
UACC-62 melanoma = tested on: UACC-62 melanoma
OVCAR-3 ovarian = tested on: OVCAR-3 ovarian

For `CC(C)(O)c1coc(S(=O)(=O)/N=C(\O)Nc2c3c(cc4c2CCC4)CCC3)c1`, the GI50 (HCT-116 colon) was > 100 µM, the TGI (HCT-116 colon) was > 100 µM and the GI50 (SK-MEL-2 melanoma) was > 100 µM. The TGI (SK-MEL-2 melanoma) was > 100 µM, the GI50 (BT-549 breast) was > 100 µM and the TGI (BT-549 breast) was > 100 µM. The GI50 (HOP-92 NSCLC) was 91.9 µM, the TGI (HOP-92 NSCLC) was > 100 µM and the GI50 (EKVX NSCLC) was > 100 µM. For the same compound, the TGI (EKVX NSCLC) was > 100 µM, the GI50 (COLO 205 colon) was > 100 µM and the TGI (COLO 205 colon) was > 100 µM. The GI50 (OVCAR-5 ovarian) was > 100 µM, the TGI (OVCAR-5 ovarian) was > 100 µM and the GI50 (DU-145 prostate) was > 100 µM. The TGI (DU-145 prostate) was > 100 µM, the GI50 (OVCAR-8 ovarian) was > 100 µM and the TGI (OVCAR-8 ovarian) was > 100 µM. The GI50 (LOX IMVI melanoma) was > 100 µM, the TGI (LOX IMVI melanoma) was > 100 µM and the GI50 (IGROV1 ovarian) was > 100 µM. The TGI (IGROV1 ovarian) was > 100 µM, the GI50 (ACHN renal) was > 100 µM and the TGI (ACHN renal) was > 100 µM. The GI50 (A498 renal) was > 100 µM, the TGI (A498 renal) was > 100 µM and the GI50 (HT29 colon) was > 100 µM. For the same compound, the TGI (HT29 colon) was > 100 µM, the GI50 (SF-295 CNS) was > 100 µM and the TGI (SF-295 CNS) was > 100 µM. The GI50 (OVCAR-4 ovarian) was > 100 µM, the TGI (OVCAR-4 ovarian) was > 100 µM and the GI50 (SK-MEL-28 melanoma) was > 100 µM. For the same compound, the TGI (SK-MEL-28 melanoma) was > 100 µM, the GI50 (TK-10 renal) was > 100 µM and the TGI (TK-10 renal) was > 100 µM. The GI50 (KM12 colon) was > 100 µM, the TGI (KM12 colon) was > 100 µM and the GI50 (SF-539 CNS) was > 100 µM. The TGI (SF-539 CNS) was > 100 µM, the GI50 (NCI-H522 lung) was > 100 µM and the TGI (NCI-H522 lung) was > 100 µM. For the same compound, the GI50 (M14 melanoma) was > 100 µM, the TGI (M14 melanoma) was > 100 µM and the GI50 (K-562 leukemia) was > 100 µM. The TGI (K-562 leukemia) was > 100 µM, the GI50 (HOP-62 NSCLC) was > 100 µM and the TGI (HOP-62 NSCLC) was > 100 µM. The GI50 (RXF 393 renal) was > 100 µM, the TGI (RXF 393 renal) was > 100 µM and the GI50 (UACC-257 melanoma) was > 100 µM. For the same compound, the TGI (UACC-257 melanoma) was > 100 µM, the GI50 (HCT-15 colon) was > 100 µM and the TGI (HCT-15 colon) was > 100 µM. For the same compound, the GI50 (NCI-H226 lung) was > 100 µM, the TGI (NCI-H226 lung) was > 100 µM and the GI50 (SW-620 colon) was > 100 µM. The TGI (SW-620 colon) was > 100 µM, the GI50 (SNB-75 CNS) was > 100 µM and the TGI (SNB-75 CNS) was > 100 µM. For the same compound, the GI50 (SK-MEL-5 melanoma) was > 100 µM, the TGI (SK-MEL-5 melanoma) was > 100 µM and the GI50 (HS 578T breast) was > 100 µM. For the same compound, the TGI (HS 578T breast) was > 100 µM, the GI50 (PC-3 prostate) was > 100 µM and the TGI (PC-3 prostate) was > 100 µM. For the same compound, the GI50 (MDA-MB-231 breast) was > 100 µM, the TGI (MDA-MB-231 breast) was > 100 µM and the GI50 (RPMI-8226 leukemia) was > 100 µM. The TGI (RPMI-8226 leukemia) was > 100 µM, the GI50 (UO-31 renal) was > 100 µM and the TGI (UO-31 renal) was > 100 µM. For the same compound, the GI50 (SK-OV-3 ovarian) was > 100 µM, the TGI (SK-OV-3 ovarian) was > 100 µM and the GI50 (U251 CNS) was > 100 µM. The TGI (U251 CNS) was > 100 µM, the GI50 (T-47D breast) was > 100 µM and the TGI (T-47D breast) was > 100 µM. The GI50 (MCF7 breast) was > 100 µM, the TGI (MCF7 breast) was > 100 µM and the GI50 (SNB-19 CNS) was > 100 µM. For the same compound, the TGI (SNB-19 CNS) was > 100 µM, the GI50 (786-0 renal) was > 100 µM and the TGI (786-0 renal) was > 100 µM. The GI50 (MDA-MB-435) was > 100 µM, the TGI (MDA-MB-435) was > 100 µM and the GI50 (NCI-H460 lung) was > 100 µM. For the same compound, the TGI (NCI-H460 lung) was > 100 µM, the GI50 (MOLT-4 leukemia) was > 100 µM and the TGI (MOLT-4 leukemia) was > 100 µM. The GI50 (HCC-2998 colon) was > 100 µM, the TGI (HCC-2998 colon) was > 100 µM and the GI50 (NCI-H23 lung) was > 100 µM. For the same compound, the TGI (NCI-H23 lung) was > 100 µM, the GI50 (SN12C renal) was > 100 µM and the TGI (SN12C renal) was > 100 µM. The GI50 (SF-268 CNS) was > 100 µM, the TGI (SF-268 CNS) was > 100 µM and the GI50 (SR leukemia) was > 100 µM. The TGI (SR leukemia) was > 100 µM, the GI50 (MALME-3M melanoma) was > 100 µM and the TGI (MALME-3M melanoma) was > 100 µM. The GI50 (A549 NSCLC) was > 100 µM, the TGI (A549 NSCLC) was > 100 µM and the GI50 (CAKI-1 renal) was > 100 µM. For the same compound, the TGI (CAKI-1 renal) was > 100 µM, the GI50 (HL-60(TB) leukemia) was > 100 µM and the TGI (HL-60(TB) leukemia) was > 100 µM. For the same compound, the GI50 (UACC-62 melanoma) was > 100 µM, the TGI (UACC-62 melanoma) was > 100 µM and the GI50 (OVCAR-3 ovarian) was > 100 µM. For the same compound, the TGI (OVCAR-3 ovarian) was > 100 µM.
